These results are taken from patent US20250188069A1, “COMPOUNDS AND METHODS FOR DEGRADING CASEIN KINASE 1 ALPHA” (PIN THERAPEUTICS, INC., priority 2022, published 2025).

For this assay, the system named is MV-4-11 cells. Kind of assay: AML cell viability assay (RealTime-Glo). As to conditions: Homo sapiens, MV4-11, IC50 class, MV-4-11 cells, read-out: Cell viability classification. It counts as cell-based.
[1] abbreviates: RealTime-Glo after 44 hrs of treatment (TABLE 4).
Where [2] appears, read: RealTime-Glo after 44 hrs of treatment (TABLE 2).
The mark [3] stands for this setting: RealTime-Glo after 44 hrs of treatment (TABLE 1).

Each structure is given as a SMILES string. Structures can show the parent of a compound that is named as a salt. Where two headings read alike, the source gives them in different places.

In the case of `O=C1CCC(N2Cc3c(N(CCC4CC4)[C@H]4CC[C@H](NCC5(C(F)(F)F)CC5)CC4)ccc(F)c3C2=O)C(=O)N1` (stereo partly drawn) [Compound 627, 3-{4-[(2-cyclopropylethyl)[(1r,4r)-4-({[1-(trifluoromethyl)cyclopropyl]methyl}amino)cyclohexyl]amino]-7-fluoro-1-oxo-3H-isoindol-2-yl}piperidine-2,6-dione], under setting [1], the IC50 is above 1000 nM.

On to `NCCCCN(c1cccc2c1CN(C1CCC(=O)NC1=O)C2=O)[C@H]1CC[C@H](N)CC1` (stereo partly drawn) [Compound 103, 3-(4-((4-aminobutyl)((1r,4r)-4-aminocyclohexyl)amino)-1-oxoisoindolin-2-yl)piperidine-2,6-dione, 2HCl], for which the IC50 under setting [2] lay in the range of 100 to 1000 nM.

Consider `O=C1CCC(N2Cc3c(cccc3N(CCC3CC3)[C@H]3CC[C@H](N4CC[C@H](C(F)(F)F)C4)CC3)C2=O)C(=O)N1` (stereo partly drawn) [Compound 712, 3-(4-((2-cyclopropylethyl)((1S,4r)-4-((S)-3-(trifluoromethyl)pyrrolidin-1-yl)cyclohexyl)amino)-1-oxoisoindolin-2-yl)piperidine-2,6-dione 2,2,2-trifluoroacetate], for which the IC50 (RealTime-Glo after 44 hrs of treatment (TABLE 5)) is 100 to 1000 nM.

Consider `CC(C)(CN)CCCN(CCCCN)c1cccc2c1CN(C1CCC(=O)NC1=O)C2=O` (stereo not drawn) [Compound 126, 3-(4-((5-amino-4,4-dimethylpentyl)(4-aminobutyl)amino)-1-oxoisoindolin-2-yl)piperidine-2,6-dione dihydrochloride], for which the IC50 under setting [2] was below 100 nM.

`CNC(=O)[C@H]1CC[C@@H](N(CCC2CC2)c2cccc3c2CN(C2CCC(=O)NC2=O)C3=O)C1` (stereo partly drawn) [Compound 360, (1S,3R)-3-((2-cyclopropylethyl)(2-(2,6-dioxopiperidin-3-yl)-1-oxoisoindolin-4-yl)amino)-N-methylcyclopentane-1-carboxamide]: the IC50 under setting [3] is below 100 nM.

For the molecule `CCCCCN(CCCCNC(=O)NC)c1cccc2c1CN(C1CCC(=O)NC1=O)C2=O` (stereo not drawn) [Compound 143, 1-(4-((2-(2,6-dioxopiperidin-3-yl)-1-oxoisoindolin-4-yl)(pentyl)amino)butyl)-3-methylurea], the IC50 under setting [2] lay within 100 to 1000 nM.

With `N[C@H]1CC[C@H](N(CCC=C2CCOCC2)c2cccc3c2CN(C2CCC(=O)NC2=O)C3=O)CC1` (stereo partly drawn) [Compound 344, 3-(4-(((1r,4r)-4-aminocyclohexyl)(3-(tetrahydro-4H-pyran-4-ylidene)propyl)amino)-1-oxoisoindolin-2-yl)piperidine-2,6-dione. Formic Acid], the IC50 under setting [3] lay in the range of 100 to 1000 nM.

Take `CCCCCN(CCCCNC(=O)CNC)c1cccc2c1CN(C1CCC(=O)NC1=O)C2=O` (stereo not drawn) [Compound 181, N-(4-((2-(2,6-dioxopiperidin-3-yl)-1-oxoisoindolin-4-yl)(pentyl)amino)butyl)-2-(methylamino)acetamide]: the IC50 under setting [2] lay within 100 to 1000 nM.

In the case of `NCCCCN(c1cccc2c1CN(C1CCC(=O)NC1=O)C2=O)[C@H]1CC[C@@H](CN)CC1` (stereo partly drawn) [Compound 104, 3-(4-((4-aminobutyl)((1s,4s)-4-(aminomethyl)cyclohexyl)amino)-1-oxoisoindolin-2-yl)piperidine-2,6-dione dihydrochloride], the IC50 under setting [2] fell in the range of 100 to 1000 nM.

For the molecule `NCCCCN(CCCCN)c1cccc2c1CN(C1CCC(=O)NC1=O)C2=O` (stereo not drawn) [Compound 96, 3-(4-(bis(4-aminobutyl)amino)-1-oxoisoindolin-2-yl)piperidine-2,6-dione dihydrochloride], the IC50 under setting [2] is 100 to 1000 nM.

With `O=C1CCC(N2Cc3c(cccc3N(CCC3CC3)[C@H]3CC[C@H](NCC4(C(F)(F)F)CC4)CC3)C2=O)C(=O)N1` (stereo partly drawn) [Compound 582, 3-{4-[(2-cyclopropylethyl)[(1r,4r)-4-({[1-(trifluoromethyl)cyclopropyl]methyl}amino)cyclohexyl]amino]-1-oxo-3H-isoindol-2-yl}piperidine-2,6-dione], under setting [1], the IC50 was below 100 nM.

`C[C@H]1CC[C@H](N(CCCCN)c2cccc3c2CN(C2CCC(=O)NC2=O)C3=O)CC1` (stereo partly drawn) [Compound 109, 3-(4-((4-aminobutyl)((1r,4r)-4-methylcyclohexyl)amino)-1-oxoisoindolin-2-yl)piperidine-2,6-dione hydrochloride]: the IC50 under setting [2] is 100 to 1000 nM.
